Laboratory results taken from patent publication US11739098B2 (BRISTOL-MYERS SQUIBB COMPANY, priority 2017, dated 2023).

Columns and labels:
Assay type in all cases: cell-based
human TLR9 = biological target: T1, human TLR9 (Homo sapiens, UniProt Q9NR96); assay: TLR9 inhibition reporter assay (HEK-Blue cells, SEAP reporter, ODN2006 stimulation); settings: HEK-Blue cells overexpressing human TLR9, SEAP reporter, ODN2006 5 nM
T1 construct: host or cells: HEK-Blue cells (HEK293-derived reporter line)
T1 sequence (Q9NR96 26-1032): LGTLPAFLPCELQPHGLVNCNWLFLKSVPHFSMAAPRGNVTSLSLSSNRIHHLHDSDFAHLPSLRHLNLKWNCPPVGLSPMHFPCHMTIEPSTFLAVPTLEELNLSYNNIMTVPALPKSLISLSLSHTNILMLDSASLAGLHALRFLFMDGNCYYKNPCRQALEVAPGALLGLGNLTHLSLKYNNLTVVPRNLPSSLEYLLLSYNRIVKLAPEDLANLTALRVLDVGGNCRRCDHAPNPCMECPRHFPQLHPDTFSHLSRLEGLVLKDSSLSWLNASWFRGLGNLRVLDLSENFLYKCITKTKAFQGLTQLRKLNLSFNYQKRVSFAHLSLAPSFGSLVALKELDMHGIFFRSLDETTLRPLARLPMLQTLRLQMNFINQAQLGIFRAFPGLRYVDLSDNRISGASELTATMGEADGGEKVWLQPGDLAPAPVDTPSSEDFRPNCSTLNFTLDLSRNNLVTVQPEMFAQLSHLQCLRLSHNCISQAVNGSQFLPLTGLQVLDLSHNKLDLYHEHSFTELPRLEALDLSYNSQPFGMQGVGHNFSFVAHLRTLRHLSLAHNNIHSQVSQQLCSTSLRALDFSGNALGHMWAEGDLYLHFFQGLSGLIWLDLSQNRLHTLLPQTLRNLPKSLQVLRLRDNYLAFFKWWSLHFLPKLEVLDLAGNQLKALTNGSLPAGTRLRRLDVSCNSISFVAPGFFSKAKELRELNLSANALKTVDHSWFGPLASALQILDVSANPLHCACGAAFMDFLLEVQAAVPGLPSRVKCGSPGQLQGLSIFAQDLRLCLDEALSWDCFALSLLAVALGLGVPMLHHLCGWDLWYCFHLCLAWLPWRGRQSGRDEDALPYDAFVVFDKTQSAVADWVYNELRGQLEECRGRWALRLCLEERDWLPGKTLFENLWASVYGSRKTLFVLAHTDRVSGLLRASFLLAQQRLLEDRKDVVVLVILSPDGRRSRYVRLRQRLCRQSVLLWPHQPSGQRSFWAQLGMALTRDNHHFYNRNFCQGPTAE
In short: (§1)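 Cells seeded per well (15000 TLR7, 20,000 TLR8, 25,000 TLR9); compound added over 0.05 nM–50 μM for 30 min at room temperature; agonist added (TLR7 gardiquimod 7.5 μM, TLR8 R848 15.9 μM, TLR9 ODN2006 5 nM); 22 h at 37 °C; SEAP measured; percent inhibition calculated.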

human TLR7 = biological target: T2, human TLR7 (Homo sapiens, UniProt Q9NYK1); assay: TLR7 inhibition reporter assay (HEK-Blue cells, SEAP reporter, gardiquimod stimulation); settings: HEK-Blue cells overexpressing human TLR7, SEAP reporter, gardiquimod 7.5 μM
T2 construct: host or cells: HEK-Blue cells (HEK293-derived reporter line)
T2 sequence (Q9NYK1 27-1049): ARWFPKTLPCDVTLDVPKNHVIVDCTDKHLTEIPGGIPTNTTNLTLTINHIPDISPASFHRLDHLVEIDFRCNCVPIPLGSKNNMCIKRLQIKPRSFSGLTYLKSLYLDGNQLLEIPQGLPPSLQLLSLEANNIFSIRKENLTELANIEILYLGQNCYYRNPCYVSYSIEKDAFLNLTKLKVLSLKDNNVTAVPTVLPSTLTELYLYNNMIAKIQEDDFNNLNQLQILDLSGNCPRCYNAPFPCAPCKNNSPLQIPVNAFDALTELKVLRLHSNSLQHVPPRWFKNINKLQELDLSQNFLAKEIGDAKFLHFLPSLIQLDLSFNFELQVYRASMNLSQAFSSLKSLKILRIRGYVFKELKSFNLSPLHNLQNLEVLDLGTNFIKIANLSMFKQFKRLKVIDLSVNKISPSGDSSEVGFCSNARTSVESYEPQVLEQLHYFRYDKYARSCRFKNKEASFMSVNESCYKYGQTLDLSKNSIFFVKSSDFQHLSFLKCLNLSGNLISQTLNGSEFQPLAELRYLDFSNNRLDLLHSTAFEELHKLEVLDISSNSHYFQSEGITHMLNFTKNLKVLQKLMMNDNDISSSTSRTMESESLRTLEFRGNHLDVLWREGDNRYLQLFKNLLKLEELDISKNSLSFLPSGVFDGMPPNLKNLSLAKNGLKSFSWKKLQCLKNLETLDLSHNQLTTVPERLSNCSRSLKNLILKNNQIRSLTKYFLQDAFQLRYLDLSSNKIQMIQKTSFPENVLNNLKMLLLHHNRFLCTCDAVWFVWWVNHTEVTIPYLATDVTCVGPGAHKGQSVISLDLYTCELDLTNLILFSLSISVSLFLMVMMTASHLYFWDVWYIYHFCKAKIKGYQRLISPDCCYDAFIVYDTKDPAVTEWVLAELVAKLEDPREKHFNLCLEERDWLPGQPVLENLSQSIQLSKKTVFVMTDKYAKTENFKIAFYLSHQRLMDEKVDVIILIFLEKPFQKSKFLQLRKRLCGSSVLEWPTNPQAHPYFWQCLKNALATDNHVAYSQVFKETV
In short: as §1

human TLR8 = biological target: T3, human TLR8 (Homo sapiens, UniProt Q9NR97); assay: TLR8 inhibition reporter assay (HEK-Blue cells, SEAP reporter, R848 stimulation); settings: HEK-Blue cells overexpressing human TLR8, SEAP reporter, R848 15.9 μM
T3 construct: host or cells: HEK-Blue cells (HEK293-derived reporter line)
T3 sequence (Q9NR97 27-1041): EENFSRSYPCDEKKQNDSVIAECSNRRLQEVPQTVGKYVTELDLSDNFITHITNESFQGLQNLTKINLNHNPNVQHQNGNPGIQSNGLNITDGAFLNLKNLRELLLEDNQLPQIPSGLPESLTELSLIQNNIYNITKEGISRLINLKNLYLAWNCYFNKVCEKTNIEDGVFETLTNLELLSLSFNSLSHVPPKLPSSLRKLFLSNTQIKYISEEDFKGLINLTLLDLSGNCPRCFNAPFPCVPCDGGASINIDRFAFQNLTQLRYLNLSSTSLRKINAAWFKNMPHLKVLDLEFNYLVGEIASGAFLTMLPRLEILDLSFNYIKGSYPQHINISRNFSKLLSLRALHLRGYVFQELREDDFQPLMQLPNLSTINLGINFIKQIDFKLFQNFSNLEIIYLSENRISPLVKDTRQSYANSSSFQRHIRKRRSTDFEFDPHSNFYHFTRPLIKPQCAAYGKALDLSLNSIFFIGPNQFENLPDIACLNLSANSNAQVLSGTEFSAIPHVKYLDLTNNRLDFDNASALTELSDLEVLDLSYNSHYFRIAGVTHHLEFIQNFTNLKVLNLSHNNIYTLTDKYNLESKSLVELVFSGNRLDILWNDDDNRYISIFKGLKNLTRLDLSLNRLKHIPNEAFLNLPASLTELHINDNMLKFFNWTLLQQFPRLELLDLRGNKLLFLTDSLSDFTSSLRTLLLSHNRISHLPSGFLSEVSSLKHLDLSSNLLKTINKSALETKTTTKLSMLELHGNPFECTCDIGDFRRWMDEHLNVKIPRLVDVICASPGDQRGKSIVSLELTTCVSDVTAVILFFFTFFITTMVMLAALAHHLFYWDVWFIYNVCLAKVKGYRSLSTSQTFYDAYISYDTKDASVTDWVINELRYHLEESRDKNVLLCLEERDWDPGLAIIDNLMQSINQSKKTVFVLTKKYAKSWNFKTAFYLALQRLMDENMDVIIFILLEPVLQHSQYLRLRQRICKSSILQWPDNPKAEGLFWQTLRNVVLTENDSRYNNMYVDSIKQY
In short: as §1

| IC50 (human TLR9) | IC50 (human TLR7) | IC50 (human TLR8) | SMILES |
| --- | --- | --- | --- |
| 1000 to 50000 nM | < 100 nM | < 100 nM | Cc1cc(-c2[nH]c3ccc(C4CCN(C5COC5)CC4)cc3c2C(C)C)cc2ccnn12 [Example 720, 5-(3-isopropyl-5-(1-(oxetan-3-yl)piperidin-4-yl)-1H-indol-2-yl)-7-methylpyrazolo[1,5-a]pyridine] |
| 1000 to 50000 nM | < 100 nM | < 100 nM | Cc1cc(-c2[nH]c3ccc(C4CCNCC4)cc3c2C(C)C)cn2cc(C(=O)NCCO)nc12 [Example 267, N-(2-hydroxyethyl)-6-(3-isopropyl-5-(piperidin-4-yl)-1H-indol-2-yl)-8-methylimidazo[1,2-a]pyridine-2-carboxamide] |
| 1000 to 50000 nM | < 100 nM | < 100 nM | CC(C)c1c(-c2cc(Cl)c3ncccc3c2)[nH]c2ccc(C3CCNCC3)cc12 [Example 139, 8-chloro-6-(3-isopropyl-5-(piperidin-4-yl)-1H-indol-2-yl)quinoline] |
| 100 to 1000 nM | 100 to 1000 nM | < 100 nM | CCc1c(-c2ccnc3[nH]nc(CC)c23)[nH]c2ccc(C3CCNCC3)cc12 [Example 224, 3-ethyl-4-(3-ethyl-5-(piperidin-4-yl)-1H-indol-2-yl)-1H-pyrazolo[3,4-b]pyridine] |
| 1000 to 50000 nM | < 100 nM | < 100 nM | CC(C)c1c(-c2ccc3ncsc3c2)[nH]c2ccc(C3CCN(CC(=O)N(C)C)CC3)cc12 [Example 298, 2-(4-(2-(benzo[d]thiazol-6-yl)-3-isopropyl-1H-indol-5-yl)piperidin-1-yl)-N,N-dimethylacetamide] |
| 1000 to 50000 nM | < 100 nM | 100 to 1000 nM | CC(C)c1c(-c2cc(F)c3nccn3c2)[nH]c2ccc(C3CCN(CC(=O)N(C)C)CC3)cc12 [Example 408, 2-(4-(2-(8-fluoroimidazo[1,2-5a]pyridin-6-yl)-3-isopropyl-1H-indol-5-yl)piperidin-1-yl)-N,N-dimethylacetamide] |
| 100 to 1000 nM | < 100 nM | < 100 nM | Cc1cc2nccn2cc1-c1[nH]c2ccc(C3CCNCC3)cc2c1C(C)C [Example 110, 6-(3-isopropyl-5-(piperidin-4-yl)-1H-indol-2-yl)-7-methylimidazo[1,2-a]pyridine] |
| < 100 nM | 100 to 1000 nM | 1000 to 50000 nM | CC(C)c1c(-c2cc3c(s2)CNCC3)[nH]c2ccc(C3CCNCC3)cc12 [Example 207, 2-(3-isopropyl-5-(piperidin-4-yl)-1H-indol-2-yl)-4,5,6,7-tetrahydrothieno [2,3-c]pyridine] |

The remaining lines, values behind:

| SMILES | IC50 (human TLR9) | IC50 (human TLR7) | IC50 (human TLR8) |
| --- | --- | --- | --- |
| Cc1ncc(CN2CCC(c3ccc4[nH]c(-c5ccnc6[nH]nc(C)c56)c(C(C)C)c4c3)CC2)[nH]1 [Example 872, 4-(3-isopropyl-5-(1-((2-methyl-1H-imidazol-5-yl)methyl)piperidin-4-yl)-1H-indol-2-yl)-3-methyl-1H-pyrazolo[3,4-b]pyridine] | 100 to 1000 nM | 1000 to 50000 nM | < 100 nM |
| CC(C)c1c(-c2cn(C)c3ncccc23)[nH]c2ccc(C3CCN(C4CCS(=O)(=O)CC4)CC3)cc12 [Example 784, 4-(4-(3-isopropyl-2-(1-methyl-1H-pyrrolo[2,3-b]pyridin-3-yl)-1H-indol-5-yl)piperidin-1-yl)tetrahydro-2H-thiopyran 1,1-dioxide] | 1000 to 50000 nM | < 100 nM | < 100 nM |
| Cc1c(-c2[nH]c3ccc(C4CCN(CC(=O)N(C)C)CC4)cc3c2C(C)C)c2cccnc2n1C [Example 286, 2-(4-(2-(1,2-dimethyl-1H-pyrrolo[2,3-b]pyridin-3-yl)-3-isopropyl-1H-indol-5-yl)piperidin-1-yl)-N,N-dimethylacetamide] | 1000 to 50000 nM | < 100 nM | < 100 nM |
| Cc1cc2nccn2cc1-c1[nH]c2ccc(C3CCN(CCCN(C)C)CC3)cc2c1C(C)C [Example 856, 3-(4-(3-isopropyl-2-(7-methylimidazo[1,2-a]pyridin-6-yl)-1H-indol-5-yl)piperidin-1-yl)-N,N-dimethylpropan-1-amine] | 100 to 1000 nM | < 100 nM | < 100 nM |
| CC(C)c1c(-c2ccn3cnnc3c2)[nH]c2ccc(C3CCN(C4CCOCC4)CC3)cc12 [Example 697, 7-(3-isopropyl-5-(1-(tetrahydro-2H-pyran-4-yl)piperidin-4-yl)-1H-indol-2-yl)-[1,2,4]triazolo[4,3-a]pyridine] | 100 to 1000 nM | 100 to 1000 nM | 100 to 1000 nM |
| Cc1c(-c2[nH]c3ccc(C4CCN(CC(=O)N(C)C)CC4)cc3c2C(C)C)cn2nnnc2c1C [Example 309, 2-(4-(2-(7,8-dimethyltetrazolo[1,5-a]pyridin-6-yl)-3-isopropyl-1H-indol-5-yl)piperidin-1-yl)-N,N-dimethylacetamide] | 1000 to 50000 nM | < 100 nM | < 100 nM |
